System: sugarcane, variety RB 81-5156 (plant-cane)
Assay: Evaluation of carfentrazone-ethyl as a sugarcane ripener (field trial, stems harvested 0-45 DAA; % POL, % BRIX, % PURITY)
Type: in vivo
Conditions: average of four replications
Procedure: The following example further illustrates the present invention, but, of course, should not be construed as in any way limiting its scope. The example includes a protocol for the evaluation of certain PPO-inhibiting compounds as ripeners on sugarcane crops, and sets forth certain data indicating the effectiveness of such compounds. Yield is measured in % POL, which is the percent saccharose content in the pressed broth or the cane. Purity and % BRIX (defined as total sugar content including glucose, fructose, saccharose and minerals) are also measures of crop yield, although the saccharose content is of primary concern.
The trial was performed on sugarcane, variety RB 81-5156 (plant-cane). The sugarcane was planted with spacing of 1.40 m between rows, using 30 kg/ha of N; 100 kg/ha of P2O5 and 80 gk/ha of K2O as basic fertilizers, complemented by a covering application of 30 kg/ha of N.
The application of ripeners was performed with pressurized back-pack sprayers, with flat fan nozzle 110.01. The flow was 65 l/ha and the pressure was 35 lb/in^2.
The experimental design used randomized plots with 6 treatments and 4 replications. The size of each experimental plot was 126 m^2 (6 spacing lines of 1.40 m per 15 m of length).
The climatic conditions at the time of the ripener applications were: average temperature of 27° C.; air relative humidity of 73%, wind speed of 4 km/hour.
One linear meter of stems was harvested in each experimental plot at 0 (zero), 15, 30 and 45 days after application (DAA) of the ripener. The sugar was extracted from these stems and submitted for GC and refractometer analysis of percent saccharose, glucose, fructose and minerals corresponding to % POL, % BRIX and % PURITY.
The results, shown as an average of four replications, were compared with results observed in the same trials with trinexapac-ethyl (Moddus).

CCOC(=O)C(Cl)Cc1cc(-n2nc(C)n(C(F)F)c2=O)c(F)cc1Cl (stereo not drawn) [Carfentrazone-ethyl, ethyl α,2-dichloro-5-[4-(difluoromethyl)-4,5-dihydro-3-methyl-5-oxo-1H-1,2,4-triazol-1-yl]-4-fluorobenzenepropanoate]
% BRIX in Pressed Broth of Sugarcane Crop after Application of Ripeners (30 g ai/ha, 0 DAA): 14.80% | % POL in Pressed Broth of Sugarcane Crop after Application of Ripeners (30 g ai/ha, 0 DAA): 11.90% | % POL in the Cane of Sugarcane Crop after Application of Ripeners (30 g ai/ha, 0 DAA): 10.38% | % PURITY in Pressed Broth of Sugarcane Crop after Application of Ripeners (30 g ai/ha, 0 DAA): 78.48% | % BRIX in Pressed Broth of Sugarcane Crop after Application of Ripeners (30 g ai/ha, 15 DAA): 15.40% | % POL in Pressed Broth of Sugarcane Crop after Application of Ripeners (30 g ai/ha, 15 DAA): 12.35% | % POL in the Cane of Sugarcane Crop after Application of Ripeners (30 g ai/ha, 15 DAA): 10.68% | % PURITY in Pressed Broth of Sugarcane Crop after Application of Ripeners (30 g ai/ha, 15 DAA): 79.10% | % BRIX in Pressed Broth of Sugarcane Crop after Application of Ripeners (30 g ai/ha, 30 DAA): 16.15% | % POL in Pressed Broth of Sugarcane Crop after Application of Ripeners (30 g ai/ha, 30 DAA): 12.75% | % POL in the Cane of Sugarcane Crop after Application of Ripeners (30 g ai/ha, 30 DAA): 10.75% | % PURITY in Pressed Broth of Sugarcane Crop after Application of Ripeners (30 g ai/ha, 30 DAA): 79.50% | % BRIX in Pressed Broth of Sugarcane Crop after Application of Ripeners (30 g ai/ha, 45 DAA): 16.40% | % POL in Pressed Broth of Sugarcane Crop after Application of Ripeners (30 g ai/ha, 45 DAA): 12.20% | % POL in the Cane of Sugarcane Crop after Application of Ripeners (30 g ai/ha, 45 DAA): 10.75% | % PURITY in Pressed Broth of Sugarcane Crop after Application of Ripeners (30 g ai/ha, 45 DAA): 79.35% | % BRIX in Pressed Broth of Sugarcane Crop after Application of Ripeners (40 g ai/ha, 0 DAA): 14.50% | % POL in Pressed Broth of Sugarcane Crop after Application of Ripeners (40 g ai/ha, 0 DAA): 12.55% | % POL in the Cane of Sugarcane Crop after Application of Ripeners (40 g ai/ha, 0 DAA): 10.38% | % PURITY in Pressed Broth of Sugarcane Crop after Application of Ripeners (40 g ai/ha, 0 DAA): 78.90% | % BRIX in Pressed Broth of Sugarcane Crop after Application of Ripeners (40 g ai/ha, 15 DAA): 15.50% | % POL in Pressed Broth of Sugarcane Crop after Application of Ripeners (40 g ai/ha, 15 DAA): 13.18% | % POL in the Cane of Sugarcane Crop after Application of Ripeners (40 g ai/ha, 15 DAA): 10.63% | % PURITY in Pressed Broth of Sugarcane Crop after Application of Ripeners (40 g ai/ha, 15 DAA): 80.28% | % BRIX in Pressed Broth of Sugarcane Crop after Application of Ripeners (40 g ai/ha, 30 DAA): 16.98% | % POL in Pressed Broth of Sugarcane Crop after Application of Ripeners (40 g ai/ha, 30 DAA): 13.70% | % POL in the Cane of Sugarcane Crop after Application of Ripeners (40 g ai/ha, 30 DAA): 10.98% | % PURITY in Pressed Broth of Sugarcane Crop after Application of Ripeners (40 g ai/ha, 30 DAA): 81.20% | % BRIX in Pressed Broth of Sugarcane Crop after Application of Ripeners (40 g ai/ha, 45 DAA): 16.90% | % POL in Pressed Broth of Sugarcane Crop after Application of Ripeners (40 g ai/ha, 45 DAA): 13.58% | % POL in the Cane of Sugarcane Crop after Application of Ripeners (40 g ai/ha, 45 DAA): 11.00% | % PURITY in Pressed Broth of Sugarcane Crop after Application of Ripeners (40 g ai/ha, 45 DAA): 81.43% | % BRIX in Pressed Broth of Sugarcane Crop after Application of Ripeners (60 g ai/ha, 0 DAA): 14.60% | % POL in Pressed Broth of Sugarcane Crop after Application of Ripeners (60 g ai/ha, 0 DAA): 12.55% | % POL in the Cane of Sugarcane Crop after Application of Ripeners (60 g ai/ha, 0 DAA): 10.63% | % PURITY in Pressed Broth of Sugarcane Crop after Application of Ripeners (60 g ai/ha, 0 DAA): 79.35% | % BRIX in Pressed Broth of Sugarcane Crop after Application of Ripeners (60 g ai/ha, 15 DAA): 15.20% | % POL in Pressed Broth of Sugarcane Crop after Application of Ripeners (60 g ai/ha, 15 DAA): 13.58% | % POL in the Cane of Sugarcane Crop after Application of Ripeners (60 g ai/ha, 15 DAA): 11.38% | % PURITY in Pressed Broth of Sugarcane Crop after Application of Ripeners (60 g ai/ha, 15 DAA): 81.85% | % BRIX in Pressed Broth of Sugarcane Crop after Application of Ripeners (60 g ai/ha, 30 DAA): 17.75% | % POL in Pressed Broth of Sugarcane Crop after Application of Ripeners (60 g ai/ha, 30 DAA): 14.50% | % POL in the Cane of Sugarcane Crop after Application of Ripeners (60 g ai/ha, 30 DAA): 12.45% | % PURITY in Pressed Broth of Sugarcane Crop after Application of Ripeners (60 g ai/ha, 30 DAA): 83.15% | % BRIX in Pressed Broth of Sugarcane Crop after Application of Ripeners (60 g ai/ha, 45 DAA): 17.45% | % POL in Pressed Broth of Sugarcane Crop after Application of Ripeners (60 g ai/ha, 45 DAA): 14.35% | % POL in the Cane of Sugarcane Crop after Application of Ripeners (60 g ai/ha, 45 DAA): 12.38% | % PURITY in Pressed Broth of Sugarcane Crop after Application of Ripeners (60 g ai/ha, 45 DAA): 83.15% | % BRIX in Pressed Broth of Sugarcane Crop after Application of Ripeners (80 g ai/ha, 0 DAA): 14.50% | % POL in Pressed Broth of Sugarcane Crop after Application of Ripeners (80 g ai/ha, 0 DAA): 12.45% | % POL in the Cane of Sugarcane Crop after Application of Ripeners (80 g ai/ha, 0 DAA): 10.80% | % PURITY in Pressed Broth of Sugarcane Crop after Application of Ripeners (80 g ai/ha, 0 DAA): 80.05% | % BRIX in Pressed Broth of Sugarcane Crop after Application of Ripeners (80 g ai/ha, 15 DAA): 15.80% | % POL in Pressed Broth of Sugarcane Crop after Application of Ripeners (80 g ai/ha, 15 DAA): 14.08% | % POL in the Cane of Sugarcane Crop after Application of Ripeners (80 g ai/ha, 15 DAA): 11.93% | % PURITY in Pressed Broth of Sugarcane Crop after Application of Ripeners (80 g ai/ha, 15 DAA): 82.90% | % BRIX in Pressed Broth of Sugarcane Crop after Application of Ripeners (80 g ai/ha, 30 DAA): 17.90% | % POL in Pressed Broth of Sugarcane Crop after Application of Ripeners (80 g ai/ha, 30 DAA): 15.05% | % POL in the Cane of Sugarcane Crop after Application of Ripeners (80 g ai/ha, 30 DAA): 13.25% | % PURITY in Pressed Broth of Sugarcane Crop after Application of Ripeners (80 g ai/ha, 30 DAA): 84.45% | % BRIX in Pressed Broth of Sugarcane Crop after Application of Ripeners (80 g ai/ha, 45 DAA): 17.80% | % POL in Pressed Broth of Sugarcane Crop after Application of Ripeners (80 g ai/ha, 45 DAA): 15.30% | % POL in the Cane of Sugarcane Crop after Application of Ripeners (80 g ai/ha, 45 DAA): 13.35% | % PURITY in Pressed Broth of Sugarcane Crop after Application of Ripeners (80 g ai/ha, 45 DAA): 84.05% | % BRIX in Pressed Broth of Sugarcane Crop after Application of Ripeners (100 g ai/ha, 0 DAA): 14.90% | % POL in Pressed Broth of Sugarcane Crop after Application of Ripeners (100 g ai/ha, 0 DAA): 12.50% | % POL in the Cane of Sugarcane Crop after Application of Ripeners (100 g ai/ha, 0 DAA): 10.98% | % PURITY in Pressed Broth of Sugarcane Crop after Application of Ripeners (100 g ai/ha, 0 DAA): 81.85% | % BRIX in Pressed Broth of Sugarcane Crop after Application of Ripeners (100 g ai/ha, 15 DAA): 15.30% | % POL in Pressed Broth of Sugarcane Crop after Application of Ripeners (100 g ai/ha, 15 DAA): 14.70% | % POL in the Cane of Sugarcane Crop after Application of Ripeners (100 g ai/ha, 15 DAA): 12.25% | % PURITY in Pressed Broth of Sugarcane Crop after Application of Ripeners (100 g ai/ha, 15 DAA): 83.78% | % BRIX in Pressed Broth of Sugarcane Crop after Application of Ripeners (100 g ai/ha, 30 DAA): 18.25% | % POL in Pressed Broth of Sugarcane Crop after Application of Ripeners (100 g ai/ha, 30 DAA): 15.90% | % POL in the Cane of Sugarcane Crop after Application of Ripeners (100 g ai/ha, 30 DAA): 13.83% | % PURITY in Pressed Broth of Sugarcane Crop after Application of Ripeners (100 g ai/ha, 30 DAA): 86.05% | % BRIX in Pressed Broth of Sugarcane Crop after Application of Ripeners (100 g ai/ha, 45 DAA): 18.60% | % POL in Pressed Broth of Sugarcane Crop after Application of Ripeners (100 g ai/ha, 45 DAA): 15.75% | % POL in the Cane of Sugarcane Crop after Application of Ripeners (100 g ai/ha, 45 DAA): 13.43% | % PURITY in Pressed Broth of Sugarcane Crop after Application of Ripeners (100 g ai/ha, 45 DAA): 83.38%

CCOC(=O)C1CC(=O)C(=C(O)C2CC2)C(=O)C1 (stereo not drawn) [trinexapac-ethyl, reference compound]
% BRIX in Pressed Broth of Sugarcane Crop after Application of Ripeners (250 g ai/ha, 0 DAA): 14.93% | % POL in Pressed Broth of Sugarcane Crop after Application of Ripeners (250 g ai/ha, 0 DAA): 12.75% | % POL in the Cane of Sugarcane Crop after Application of Ripeners (250 g ai/ha, 0 DAA): 11.35% | % PURITY in Pressed Broth of Sugarcane Crop after Application of Ripeners (250 g ai/ha, 0 DAA): 81.53% | % BRIX in Pressed Broth of Sugarcane Crop after Application of Ripeners (250 g ai/ha, 15 DAA): 15.15% | % POL in Pressed Broth of Sugarcane Crop after Application of Ripeners (250 g ai/ha, 15 DAA): 14.25% | % POL in the Cane of Sugarcane Crop after Application of Ripeners (250 g ai/ha, 15 DAA): 12.53% | % PURITY in Pressed Broth of Sugarcane Crop after Application of Ripeners (250 g ai/ha, 15 DAA): 83.73% | % BRIX in Pressed Broth of Sugarcane Crop after Application of Ripeners (250 g ai/ha, 30 DAA): 17.85% | % POL in Pressed Broth of Sugarcane Crop after Application of Ripeners (250 g ai/ha, 30 DAA): 15.80% | % POL in the Cane of Sugarcane Crop after Application of Ripeners (250 g ai/ha, 30 DAA): 13.45% | % PURITY in Pressed Broth of Sugarcane Crop after Application of Ripeners (250 g ai/ha, 30 DAA): 85.15% | % BRIX in Pressed Broth of Sugarcane Crop after Application of Ripeners (250 g ai/ha, 45 DAA): 18.45% | % POL in Pressed Broth of Sugarcane Crop after Application of Ripeners (250 g ai/ha, 45 DAA): 15.75% | % POL in the Cane of Sugarcane Crop after Application of Ripeners (250 g ai/ha, 45 DAA): 14.20% | % PURITY in Pressed Broth of Sugarcane Crop after Application of Ripeners (250 g ai/ha, 45 DAA): 84.78%

Reference: patent publication US8883681B2, “Sugarcane harvest aid” (FMC Corporation, priority 2004, dated 2014)
